In US10828301B2, “2,4-pyrimidinediamine compounds and their uses” (Rigel Pharmaceuticals, Inc, priority 2002, dated 2020) one finds IC50 data, which are given here for 13 molecules.

The subject of experiment [1] is cultured human mast cells (CHMC). Put plainly: CHMC low cell density IgE activation: tryptase and LTC4 assays. To be noted: Homo sapiens, Mast cell, Low Density CHMC, anti-IgE activation, tryptase readout; read-out: CHMC anti-IgE Tryptase. It counts as cell-based. The method, boiled down:
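Cultured human mast cells at low density (1000-1500 per well) rested 1 h at 37° C, then stimulated with anti-IgE for 30 min at 37° C. Supernatant tryptase measured with fluorogenic substrate (30 min, room temperature); LTC4 quantified by ELISA on diluted supernatant.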

For experiment [2] the test system is unchanged. Put plainly: CHMC low cell density ionomycin activation: tryptase assay. It counts as cell-based. The conditions noted are these: Homo sapiens, Mast cell, Low Density CHMC, ionomycin activation, tryptase readout; read-out: CHMC Ionomycin Tryptase.

Consider `Fc1cnc(NCc2ccccc2)nc1NCc1ccccc1` [Compound R925772, N2,N4-Dibenzyl-5-fluoro-2,4-pyrimidinediamine], for which the IC50 in experiment [1] and in experiment [2] was more than 10 µM each time.
For `Clc1cccc(-c2cnc(Nc3ccc4c(c3)OCCO4)nc2Nc2ccc3c(c2)OCCO3)c1` [Compound R925787, N2,N4-Bis(3,4-ethylenedioxyphenyl)-5-(3-chlorophenyl)-2,4-pyrimidinediamine], the values for the IC50 in experiment [1] and in experiment [2] were 9 µM and more than 10 µM, respectively.
The matching figures for `CC(C)Oc1ccc(Nc2ncc(F)c(Nc3cccc(N)c3)n2)cc1` [Compound R950165, N4-(3-Aminophenyl)-5-fluoro-N2-(4-isopropoxyphenyl)-2,4-pyrimidinediamine]: 1.29 µM and more than 10 µM.
Take `N#Cc1cnc(Nc2cccc(O)c2)nc1Nc1cccc(O)c1` [Compound R925774, N2,N4-Bis(3-hydroxyphenyl)-5-cyano-2,4-pyrimidinediamine]: the IC50 is 0.435 µM in experiment [1] and more than 10 µM in experiment [2].
The matching figures for `Clc1cc(Nc2ccc3c(c2)OCCO3)nc(Nc2ccc3c(c2)OCCO3)n1` [Compound R926245, N2,N4-Bis(3,4-ethylenedioxyphenyl)-6-chloro-2,4-pyrimidinediamine]: 3.1 µM and 9.4 µM.
`Cc1cc(O)cc(N(c2ccc3c(c2)OCCO3)c2nc(N)ncc2F)c1` [Compound R926893, N4-(3,4-Ethylenedioxyphenyl)-5-fluoro-N4-(3-hydroxy-5-methylphenyl)-2,4-pyrimidinediamine]: the IC50 in experiment [1] is 10 µM; in experiment [2], more than 10 µM.
Taken in the same sequence, the figures for `Oc1ccc(Nc2ncc(F)c(Nc3ccc(O)cc3F)n2)c(F)c1` [Compound R926683, N2,N4-Bis(2-fluoro-4-hydroxyphenyl)-5-fluoro-2,4-pyrimidinediamine] were 10 µM and more than 10 µM.
Take `COC(=O)c1cc2cc(Nc3ncc(F)c(Nc4cccc(N)c4)n3)ccc2o1` [Compound R950162, N4-(3-Aminophenyl)-5-fluoro-N2-(2-methoxycarbonylbenzofurane-5-yl)-2,4-pyrimidinediamine]: the values for the IC50 in experiment [1] and in experiment [2] were 0.434 µM and more than 10 µM, respectively.
`Oc1cccc(Nc2ncc(F)c(Nc3ccc(OC(F)(F)F)c(Cl)c3)n2)c1` [Compound R920411, N4-(3-Chloro-4-trifluoromethoxyphenyl)-5-fluoro-N2-(3-hydroxyphenyl)-2,4-pyrimidinediamine]: the IC50 in experiment [1] was 0.564 µM; in experiment [2], more than 10 µM.
For the molecule `O=C(O)c1cccc(Nc2ncc(F)c(Nc3cccc(C(=O)O)c3)n2)c1` [Compound R945036, N2,N4-Bis(3-carboxyphenyl)-5-fluoro-2,4-pyrimidinediamine], the IC50 in experiment [1] and in experiment [2] was more than 10 µM throughout.
For the molecule `Oc1cccc(Nc2nc(NCc3ccc4c(c3)CCO4)ncc2F)c1` [Compound R950213, N2-[2,3-Dihydrobenzo[b]furan-5-ylmethyl]-5-fluoro-N4-(3-hydroxyphenyl)-2,4-pyrimidinediamine], the IC50 in experiment [1] and in experiment [2] was more than 10 µM each time.
As for `COc1ccc(-c2ccccc2)cc1Nc1ncc(C)c(Nc2cc(-c3ccccc3)ccc2OC)n1` [Compound R935000, N2,N4-Bis(2-methoxy-5-phenylphenyl)-5-methyl-2,4-pyrimidinediamine], the IC50 in experiment [1] and in experiment [2] was more than 10 µM each time.
`Cc1cc(Nc2ncc(F)c(Nc3cc(C)c(O)cc3C)n2)c(C)cc1O` [Compound R926623, N2,N4-Bis(2,5-dimethyl-4-hydroxyphenyl)-5-fluoro-2,4-pyrimidinediamine]: the IC50 in experiment [1] and in experiment [2] was more than 10 µM in each case.
